Laboratory results published in patent publication US5589486A, “N-hydroxyalkyl-substituted 1,2,3,6-tetrahydro-pyridine and piperidine derivatives” (Richter Gedeon Vegyeszeti Gyar Rt., priority 1991, dated 1996).
Where two headings read alike, the source gives them in different places.

How the values were obtained:
[1] = Acute toxicity study in mice; parameters: species or system mice (OF-1, either sex); conditions: mouse, in vivo, po, maximal dose 1000 mg/kg
Description: OF-1 mice of either sex weighing 19-21 g were used. The test compound was administered through a catheter inserted into the stomach. A series of solutions was prepared, the concentrations were chosen to give a constant dosage volume of 0.1 ml/10 g. The observation time after the treatment was 72 hours. The LD50 value was calculated according to Litchfield and Wilcoxon from six dose responses (maximal dose 1000 mg/kg p.o., n=10).

hypoxia = test: Antihypoxic effect, cytotoxic and hypobaric hypoxia tests taken together; type: in vivo, mice; spontaneously hypertensive (SH) rats; conditions: comparison of effects between tests, in words
Description: (§1) Male CFLP mice (from the Hungarian stock LATI) weighing 24-26 g each and spontaneously hypertensive (SH) male rats weighing 160-180 g each, respectively were used in these investigations. The compounds to be tested were orally administered in a volume of 10 ml/kg one hour prior to starting the experiment.
After a 1-hour pretreatment, the animals were intravenously injected with 5 mg/kg of potassium cyanide. Survival time was measured as an interval lasting from the administration of potassium cyanide to the last respiratory movement. In the groups consisting of 10 animals each treated with the compounds, the animals having a survival time longer by 30% than the average survival time of the placebo-treated group were considered to be protected. The ED50 values (i.e. the doses being effective in 50% of the animals) were calculated from the percentage of the surviving animals by using probit analysis.
After a 16-hour starving and 1-hour pretreatment period, the animals were placed in a desiccator of 6 liters volume, where the pressure was decreased to 170 mmHg within 20 seconds. The survival time was registered from this time point up to the last respiratory movement of the animals. […] The ED50 values were calculated from the percentage of the animals protected by using probit analysis. […]

[2] = test system: hypobaric hypoxia in SH rats; test: Hypobaric hypoxia test (170 mmHg, survival time); type: in vivo, spontaneously hypertensive (SH) male rats; conditions: in words
Description: as §1
After a 16-hour starving and 1-hour pretreatment period, the animals were placed in a desiccator of 6 liters volume, where the pressure was decreased to 170 mmHg within 20 seconds. The survival time was registered from this time point up to the last respiratory movement of the animals. Animals having a survival time longer by 30% than the average survival time of the control group were considered to be protected. The ED50 values were calculated from the percentage of the animals protected by using probit analysis.
Various forms of hypoxia were used for investigating the compounds. The functional disorganization and destruction of cells and death, respectively in otherwise healthy mice are caused by a decrease in the oxygen-saturation of haemoglobin in the hypobaric hypoxia and the inhibition of the mitochondrial respiratory enzyme in the cytotoxic hypoxia. Spontaneously hypertensive (SH) rats are more sensitive against hypoxic conditions than normotensive animals; similarly, patients suffering from hypertension have a less chance of survival after hypoxic injuries.

[3] = test system: cytotoxic hypoxia in mice; test: Cytotoxic hypoxia test (potassium cyanide i.v., survival time); type: in vivo, mice (male CFLP); conditions: in words
[4] = 72 h observation, Litchfield and Wilcoxon, read-out: LD50

SMILES	LD50 at 72 h [1, 4]	antihypoxic effect in the various tests of hypoxia (hypoxia)	also measured
OC(CN1CC=C(c2ccccc2)CC1)c1ccc(Cc2ccc(Cl)cc2)cc1 (stereo not shown) [A, 1-[4-(4-Chlorobenzyl)phenyl]-2-(4-phenyl-1,2,3,6-tetrahydro-1-pyridyl)ethanol]	> 1000 mg/kg	its effects are the same in the various tests of hypoxia	
OC(CCN1CCC(c2ccccc2)CC1)c1ccc(Cc2ccc(Cl)cc2)cc1 (stereo not shown) [B, 1-[4-(4-chlorobenzyl)phenyl]-3-(4-phenyl-1-piperidyl)propanol]			LD50 at 72 h [1]: 697 mg/kg
OC(CCN1CC=C(c2ccc(Cl)cc2)CC1)c1ccc(Cl)cc1Cl (stereo not shown) [E, 3-[4-(4-Chlorophenyl)-1,2,3,6-tetrahydro-1-pyridyl]-1-(2,4-dichlorophenyl)propanol]	> 1000 mg/kg		
NC(=O)CN1CCCC1=O [Piracetam, 2-oxo-1-pyrrolidinylacetic acid amide, reference compound]		exerts its effect in the same two tests	
CC[C@]12CCCN3CCc4c(n(c5ccccc45)[C@@](O)(C(=O)OC)C1)[C@@H]32 [Vincamine, (+)-14β-hydroxy-14α-methoxycarbonyl-14,15-dihydroeburnamenine]			action in hypobaric hypoxia [2]: prominent tolerance-enhancing action in hypobaric hypoxia; antihypoxic effect in cytotoxic hypoxia [3]: most pronounced in cytotoxic hypoxia
